Toxic doses and inconclusive results are not listed.
Tested on: L1210 leukemia ip in BDF1 mice, survival T/C
Assay: NCI In Vivo Anticancer Drug Screen. Data for tumor model L1210 Leukemia (intraperitoneal) in B6D2F1 (BDF1) mice
Conditions: endpoint: mean survival time, higher = longer survival
Method in brief: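 Tumor was transplanted into mice, which were then dosed with test compound or vehicle alone. Survival was recorded for each group, and the treated figure was expressed relative to the control figure.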

[1] = dose: 100.0 mg/kg/injection, schedule: Q04DX003 (ip), vehicle: acetone
[2] = dose: 200.0 mg/kg/injection, schedule: Q04DX003 (ip), vehicle: acetone
[3] = dose: 400.0 mg/kg/injection, schedule: Q04DX003 (ip), vehicle: acetone
[4] = dose: 100.0 mg/kg/injection, schedule: Q04DX002 (ip), vehicle: saline with Tween-80
[5] = dose: 200.0 mg/kg/injection, schedule: Q04DX002 (ip), vehicle: saline with Tween-80
[6] = dose: 400.0 mg/kg/injection, schedule: Q04DX002 (ip), vehicle: saline with Tween-80
[7] = dose: 100.0 mg/kg/injection, schedule: Q01DX001 (ip), vehicle: saline
[8] = dose: 200.0 mg/kg/injection, schedule: Q01DX009 (ip), vehicle: gum acacia

SMILES: O=C(NNC(=O)C1C2CCCCC21)C1C2CCCCC21 (stereo unspecified)
- T/C [1]: 105 % of control
- T/C [2]: 91 % of control
- T/C [3]: 97 % of control

SMILES: CC(O)CCc1ccccc1O (stereo unspecified)
- T/C [4]: 98 % of control
- T/C [5]: 91 % of control
- T/C [6]: 98 % of control

SMILES: O=C(O)CNCCN1CC(=O)NC1=S
- T/C [4]: 107 % of control
- T/C [5]: 92 % of control
- T/C [6]: 90 % of control

SMILES: CC1COCC(C)N1CCC(=O)Nc1ccc(S(=O)(=O)c2ccc(NC(=O)CCN3C(C)COCC3C)cc2)cc1 (stereo unspecified)
- T/C (dose: 100.0 mg/kg/injection, schedule: Q01DX001 (ip), vehicle: carboxymethylcellulose (CMC)): 107 % of control
- T/C (dose: 200.0 mg/kg/injection, schedule: Q01DX001 (ip), vehicle: carboxymethylcellulose (CMC)): 104 % of control
- T/C (dose: 400.0 mg/kg/injection, schedule: Q01DX001 (ip), vehicle: carboxymethylcellulose (CMC)): 101 % of control

SMILES: CN1CC(CO)=CC2c3cccc4[nH]cc(c34)CC21 (stereo unspecified)
- T/C [7]: 94 % of control

SMILES: O=C1NCN(c2ccccc2)C12CCN(Cc1nc3cc([N+](=O)[O-])ccc3n1-c1ccccc1)CC2
- T/C (dose: 100.0 mg/kg/injection, schedule: Q01DX001 (ip), vehicle: Klucel (hydroxypropylcellulose) (HPC)): 86 % of control
- T/C (dose: 200.0 mg/kg/injection, schedule: Q01DX001 (ip), vehicle: Klucel (hydroxypropylcellulose) (HPC)): 93 % of control
- T/C (dose: 400.0 mg/kg/injection, schedule: Q01DX001 (ip), vehicle: Klucel (hydroxypropylcellulose) (HPC)): 99 % of control

SMILES: COc1ccc(OC)c(NC(=O)Nc2cccc(F)c2)c1
- T/C (dose: 100.0 mg/kg/injection, schedule: Q01DX009 (ip), vehicle: gum acacia): 90 % of control
- T/C [8]: 92 % of control

SMILES: Cc1nnn2ccccc12
- T/C (dose: 25.0 mg/kg/injection, schedule: Q01DX001 (ip), vehicle: saline): 96 % of control
- T/C (dose: 50.0 mg/kg/injection, schedule: Q01DX001 (ip), vehicle: saline): 100 % of control
- T/C [7]: 100 % of control

SMILES: O=C(OCC1OC(n2nc3ccnc(Cl)c3n2)C(OC(=O)c2ccccc2)C1OC(=O)c1ccccc1)c1ccccc1 (stereo unspecified)
- T/C (dose: 50.0 mg/kg/injection, schedule: Q01DX005 (ip), vehicle: saline): 105 % of control
- T/C (dose: 100.0 mg/kg/injection, schedule: Q01DX005 (ip), vehicle: saline): 102 % of control
- T/C (dose: 200.0 mg/kg/injection, schedule: Q01DX005 (ip), vehicle: saline): 110 % of control

SMILES: Cc1cc(O)c(CN(C)C)cc1O
- T/C (dose: 75.0 mg/kg/injection, schedule: Q01DX001 (ip), vehicle: saline): 103 % of control
- T/C (dose: 150.0 mg/kg/injection, schedule: Q01DX001 (ip), vehicle: saline): 104 % of control

SMILES: O=C(O)c1ccc[nH]1
- T/C [4]: 102 % of control
- T/C [5]: 87 % of control
- T/C [6]: 98 % of control

SMILES: Clc1cc(I)cc(Cl)c1Cl
- T/C [1]: 108 % of control
- T/C [2]: 103 % of control
- T/C [3]: 91 % of control

SMILES: Cc1nc2ccccc2c(C(=O)O)c1C
- T/C (dose: 100.0 mg/kg/injection, schedule: Q04DX003 (ip), vehicle: saline): 102 % of control
- T/C (dose: 200.0 mg/kg/injection, schedule: Q04DX003 (ip), vehicle: saline): 96 % of control
- T/C (dose: 400.0 mg/kg/injection, schedule: Q04DX003 (ip), vehicle: saline): 96 % of control

SMILES: O=C1OC(c2cccc(Cl)c2)=N/C1=C\c1ccc(Cl)cc1
- T/C (dose: 100.0 mg/kg/injection, schedule: Q04DX002 (ip), vehicle: Klucel (hydroxypropylcellulose) (HPC)): 100 % of control
- T/C (dose: 200.0 mg/kg/injection, schedule: Q04DX002 (ip), vehicle: Klucel (hydroxypropylcellulose) (HPC)): 92 % of control
- T/C (dose: 400.0 mg/kg/injection, schedule: Q04DX002 (ip), vehicle: Klucel (hydroxypropylcellulose) (HPC)): 92 % of control

SMILES: O=NN(CCF)C(=O)NC1CS(=O)(=O)CS(=O)(=O)C1
- T/C (dose: 6.25 mg/kg/injection, schedule: Q01DX001 (ip), vehicle: other): 164 % of control
- T/C (dose: 12.5 mg/kg/injection, schedule: Q01DX001 (ip), vehicle: other): 204 % of control
- T/C (dose: 25.0 mg/kg/injection, schedule: Q01DX001 (ip), vehicle: other): 255 % of control
- T/C (dose: 50.0 mg/kg/injection, schedule: Q01DX001 (ip), vehicle: other): 262 % of control
- T/C (dose: 75.0 mg/kg/injection, schedule: Q01DX001 (ip), vehicle: other): 296 % of control
- T/C (dose: 100.0 mg/kg/injection, schedule: Q01DX001 (ip), vehicle: other): 205 % of control

SMILES: CC1OC(=O)C(C)(Br)OC1=O (stereo unspecified)
- T/C (dose: 100.0 mg/kg/injection, schedule: Q01DX001 (ip), vehicle: acetone): 93 % of control
- T/C (dose: 200.0 mg/kg/injection, schedule: Q01DX001 (ip), vehicle: acetone): 104 % of control

SMILES: C=CCC1CC2(C)C(CCC3C2CCC2(C)C(OC(C)=O)CCC32)CC1=O (stereo unspecified)
- T/C (dose: 10.0 mg/kg/injection, schedule: Q01DX009 (ip), vehicle: gum acacia): 89 % of control
- T/C [8]: 88 % of control

SMILES: CCCCCCCCCCCCCCCCOc1ccc(S(=O)(=O)N(Cc2ccccc2)Cc2ccccc2)cc1[N+](=O)[O-]
- T/C (dose: 100.0 mg/kg/injection, schedule: Q04DX003 (ip), vehicle: saline with Tween-80): 86 % of control
- T/C (dose: 200.0 mg/kg/injection, schedule: Q04DX003 (ip), vehicle: saline with Tween-80): 95 % of control
- T/C (dose: 400.0 mg/kg/injection, schedule: Q04DX003 (ip), vehicle: saline with Tween-80): 90 % of control

From PubChem BioAssay AID248 (DTP/NCI, 2004)
